This is an account of results in patent US11754486B2, “Systems and methods for measuring properties of particles” (Massachusetts Institute of Technology, priority 2017, dated 2023).

Assay [1] deals with L1210 cells. Put plainly: SNACS / node deviation end-point assay of chemically perturbed L1210 cells in the suspended microchannel resonator (SMR). It is filed as cell-based, mouse. To be noted: for SNACS (size-normalized acoustic scattering, proxy of cell stiffness) after treatment: L1210 cells pretreated 20-30 min, LatB 0.02-1 μM, CytoD 1 μM, Bleb 50 μM, Noc 1 μg/ml, vs DMSO 0.1% control, LatB and CytoD p<0.0001. How it is done:
SMR devices were fabricated at CEA-LETI, Grenoble, France. The fluid channel in the detection regime is covered with thin silicon layers. The SMRs were vibrated with a piezo-ceramic plate bonded underneath the chip, providing actuation to resonate the cantilever beam in the second mode. To track the changes in the resonant frequency of the cantilever as a function of time, the cantilever was kept in a feedback loop oscillating at its resonant frequency. The motion of the cantilever was measured using piezoresistors that are implanted at the base of the silicon cantilever. A digital control platform was utilized to oscillate the SMR in direct feedback mode, where the motion signal acquired from the piezoresistor is delayed, amplified, and utilized as the drive signal used to actuate the cantilever. The measurement bandwidth of this control system was set at ˜1,500 Hz, which is wide enough to capture frequency modulation signals created by cell transit events and narrow enough to minimize noise.
(§1) The system was operated by placing a chip on top of a hollow copper plate that is connected to a water bath by tubing to maintain constant temperature on the chip. For all single-cell, long-term monitoring experiments, the temperature of the copper plate was kept at 37° C. The sample was loaded to the SMR from vials pressurized with air containing 5% CO2 to maintain the pH of the culture. A 0.007″ inner diameter fluorinated ethylene propylene (FEP) tubing (IDEX Health & Science) was utilized to push the sample into the chip. The fluid flow was controlled using two electronic pressure regulators (Proportion Air QPV1) and three solenoid valves (SMC-S070), which were controlled by National Instruments control cards and a custom measurement software (Labview 2012). Typically, differential pressure of ˜0.5 psi was applied across the SMR, yielding a flow rate of ˜2 nL/s (calculated based on the frequency modulation signal due a cell transit; typically 200-300 ms) to maintain constant shear and data rate. Under these conditions, the L1210 cell growth rate was similar to that in culture. Beads, hydrogels and drug-response end-point assays were measured at room temperature. All end-point assays were conducted within 30 minutes after samples were loaded. New samples were flushed every several minutes into the input bypass to minimize potential size bias due to particle/cell settling in the tubing and sample vials.
To measure buoyant mass (antinode) and node deviation (node) from the acquired resonant frequency waveforms, the frequency data was filtered with a third order Savitzky-Golay low-pass filter and the local minima (antinode) that is below a user-defined threshold. Next, local maxima (node) around the peaks were determined. To correct for the possible slope during the particle/cell transition through the cantilever, a baseline was calculated and subtracted from the measured peaks by fitting a first order polynomial at frequency data points prior and posterior of the cell signal. For single-cell volume measurements (FIG. 16A), baselines were fitted with a second order polynomial to account for the baseline fluctuation due to fluid exchange. Both local maxima and minima in the cell signal were subtracted from the linear baseline to obtain the buoyant mass (local minima, antinode) and node deviation (local maxima, node). For single-cell end-point assays (population measurements), frequency peaks were rejected when local minima (two antinodes) differed from each other more than 10% of the average value and/or local maxima (two nodes) differed from each other more than 15% of the average value of local minima, which occur when multiple cells or cell with debris enter the SMR simultaneously. Peaks were rejected if their shape was atypical (e.g., particle/cell stuck in the cantilever). […]

For assay [2], the system named is L1210 cells. The assay is described as follows: Continuous single-cell monitoring of SNACS (stiffness) of L1210 cells through mitosis in the SMR. The format is cell-based, mouse. As for the experimental part:
Next, it was determined if both stiffness and buoyant mass of the same cell could be repeatedly measured in order to monitor cell stiffness during the cell cycle. To do so, a previously reported fluidic control strategy was implemented that enables continuous, non-invasive SMR measurements of the same cell. Employing on-chip microscopy capable of acquiring Differential Interference Contrast (DIC) images, stiffness, buoyant mass and morphology of the same cell over multiple generations was simultaneously measured. […] SNACS is shown in dashed lines when measurement error becomes statistically significant. The morphology of the cell was imaged to pinpoint the onset of anaphase as well as to correct for mass elongation effects on the SNACS measurement during anaphase and telophase (FIG. 24A-24C). Dynamic but consistent changes in cell stiffness during mitosis were observed. […] The error in the SNACS measurement increased after cells became full doublets (˜15 min after the onset of anaphase), making subsequent stiffness changes until division not statistically significant (p>0.05). Although the duration and magnitude of the dynamics varied, we observed a similar trend in cell stiffness in other mammalian cell types: BaF3 (FIG. 15D) and S-Hela (FIG. 15E).
as §1
To measure buoyant mass (antinode) and node deviation (node) from the acquired resonant frequency waveforms, the frequency data was filtered with a third order Savitzky-Golay low-pass filter and the local minima (antinode) that is below a user-defined threshold. Next, local maxima (node) around the peaks were determined. To correct for the possible slope during the particle/cell transition through the cantilever, a baseline was calculated and subtracted from the measured peaks by fitting a first order polynomial at frequency data points prior and posterior of the cell signal. For single-cell volume measurements (FIG. 16A), baselines were fitted with a second order polynomial to account for the baseline fluctuation due to fluid exchange. […]

Assay [3] relates to L1210 cells. The assay is described as follows: Imaging of F-actin (LifeAct-RFP) in live L1210 cells before and after chemical treatment. It is filed as cell-based, mouse. To be noted: live L1210 cells expressing LifeAct-RFP, before and after 30 min treatment; 1 μM LatB, 1 μM CytoD, Noc 1 μg/ml. As for the experimental part: L1210 FUCCI cells, which express the fluorescence cell cycle marker construct mAG-hGem, were transfected with LifeAct, a F-actin labelling red fluorescent protein construct, using rLVUbi-LifeAct-TagRFP lentiviral vector obtained from ibidi GmbH. Several rounds of transfections were carried out using spinoculation. In short, 1.5×10^5 L1210 FUCCI cells were mixed with 10 μg/ml Polybrene (EMD Millipore) and 1×106 TU of lentivirus, and the mixture was centrifuged at 800 g for 60 minutes at 25° C. After centrifugation, the cells were moved to normal cell culture media, grown overnight, and the spinoculation procedure was repeated. Cells were moved to normal culture media after three rounds of transfections, and 24 hours later, selection was started by adding 10 μg/ml Puromycin (Sigma-Aldrich). After a week of selection, the transfected population was enriched for cells expressing high levels of LifeAct by FACS sorting using BD FACS Aria.
L1210 cells expressing the FUCCI (mAG-hGem) and LifeAct-RFP F-actin probe (rLVUbi-LifeAct-TagRFP) constructs were imaged on poly-lysine coated glass bottom CellView cell culture dishes (Greiner Bio-One). Media, CO2, and temperature conditions during the imaging were the same as within the SMR. Imaging was carried out using a DeltaVision widefield deconvolution microscope with standard FITC and TRICT filters, 100× oil immersion objective and immersion oil with refractive index of 1.522. […]
All images were deconvolved using standard settings in the softWoRX software. To normalize the effect of photo-bleaching, the total LifeAct signal in the entire images (2048×2048 pixels) that contained multiple cells was calculated. […] During the subsequent image analyses, the LifeAct intensity was corrected with the corresponding decay coefficient calculated from the polynomial fit for each frame. To analyze individual cells, the representative cells that went through the nuclear envelope breakdown and/or cytokinesis during the experiment were determined. These cells were cut out of the larger images and analyzed individually (FIG. 28A).

Assay [4] has as its system Baf3 cells. Put plainly: Node deviation versus time of Baf3 cells treated with drug (single-cell therapeutic sensitivity). It is filed as cell-based. To be noted: a few hours of treatment. How it is done:
Acoustic scattering may be used as an early detection marker of single-cell therapeutic sensitivity (FIGS. 11A-11B). […] Viability and proliferation assays are generally not sensitive until 24 hours of drug exposure (data not shown).

Take `Cc1ccc2c(c1)C(=O)C1(O)CCN(c3ccccc3)C1=N2` (stereo not drawn) [Blebbistatin]: the “SNACS (size-normalized acoustic scattering, proxy of cell stiffness) after treatment” value in assay [1] is listed as “decreased the SNACS”. The “stiffness in early mitosis” value in assay [2] (25 μM Blebbistatin) is listed as “still displayed a gradual stiffness decrease in early mitosis”. Moreover, the “stiffness dynamics in anaphase and telophase” value in assay [2] (25 μM Blebbistatin, compared with untreated cells) was “disappeared”.
For `C=C1[C@@H](C)[C@H]2[C@H](Cc3ccccc3)NC(=O)[C@]23[C@H](OC(C)=O)/C=C/[C@@](C)(O)C(=O)[C@@H](C)C/C=C/[C@H]3[C@@H]1O` [Cytochalsin D], the “SNACS (size-normalized acoustic scattering, proxy of cell stiffness) after treatment” value in assay [1] is given as “decreased the SNACS”. The “actin cortex morphology (LifeAct F-actin images)” value (from here on “actin cortex morphology”) in assay [3] is reported as “polarized cortex”.
Turning to `CCN(c1nc(N)c(C(=O)NC(=N)N)nc1Cl)C(C)C` [EIPA, ethylisopropylamiloride], the “stiffness increase in early anaphase” value in assay [2] (10 μM EIPA) is reported as “not present”. For the same compound, in assay [2] (10 μM EIPA (n=5), 5 μM STLC (n=8), mean±standard deviation, control −0.22±0.01), the “ΔSNACS, SNACS change in prophase and metaphase (early mitosis)” value is recorded as −0.08±0.02.
`Cc1ccc(NC(=O)c2ccc(CN3CCN(C)CC3)cc2)cc1Nc1nccc(-c2cccnc2)n1` [Imatinib]: in assay [4], the “node deviation (ND) of treated cells versus DMSO” value is listed as “distinct ND”.
For `C/C1=C/C(=O)O[C@@H]2C[C@@H](CC[C@H](C)/C=C\CC1)O[C@@](O)([C@@H]1CSC(=O)N1)C2` [Latrunculin B], the “SNACS (size-normalized acoustic scattering, proxy of cell stiffness) after treatment” value in assay [1] is reported as “decreased the SNACS”. Moreover, in assay [3], the “actin cortex morphology” value was “punctured cortex”.
On to `COC(=O)Nc1nc2ccc(C(=O)c3cccs3)cc2[nH]1` [Nocodazole], for which the “SNACS (size-normalized acoustic scattering, proxy of cell stiffness) after treatment” value in assay [1] was “reduced SNACS”. Also, in assay [3], the “actin cortex morphology” value was “affected the actin cortex morphology”.
Take `N[C@@H](CSC(c1ccccc1)(c1ccccc1)c1ccccc1)C(=O)O` [STLC, S-trityl-1-cysteine]: the “stiffness (SNACS) during metaphase arrest” value in assay [2] (5 μM STLC) is “stiffness remained low for several hours”.
Turning to paraformaldehyde, in assay [1], the “SNACS after crosslinking of cellular structures” value is listed as “opposite change in SNACS” and the “node deviation after treatment” value is on record as “increased the node deviation”.
